“Also recorded” adds a separate entry of the source.
Tests used:
E. coli (MC4100) = test: MIC against E. coli; format: cell-based; details: Escherichia coli, 72 hours, 37 °C
Procedure: (§1) The term “minimum inhibitory concentration (MIC)” means the lowest concentration of an antimicrobial agent that will inhibit the visible growth of a microorganism after overnight incubation. MIC values against bacteria, for example, the Gram-positive Staphylococcus aureus and Enterococcus faecalis and the Gram-negative Escherichia coli and Pseudomonas aeruginosa were determined by standard methods. See also P. A. Wayne, Methods for Dilution Antimicrobial Tests for Bacteria that Grow Aerobically; Approved Standard, Ninth Edition, 2012, CLSI Document M07-A9, Vol. 32 No. 2.
(§2) Biological testing procedures were adapted from prior work by Melander and coworkers. For all biological assays, laboratory strains of methicillin-susceptible Staphylococcus aureus MSSA (SH1000), Staphylococcus aureus CA-MRSA (USA300-0114), Staphylococcus aureus HA-MRSA (ATCC 33591), Escherichia coli (MC4100), Enterococcus faecalis (OG1RF), Acinetobacter baumannii (ATCC 17978), were grown with shaking at 37 °C overnight from freezer stocks in 5 mL of the indicated media: SH1000, OG1RF, MC4100, USA300-0114, and ATCC 17978 were grown in BDTM Mueller-Hinton broth (MHB), whereas ATCC 33591 was grown in BDTM tryptic soy broth (TSB). The inoculum were then streaked onto Mueller-Hinton agar (MHA) plates and grown overnight at 37 °C. From the plates, single colonies were selected, diluted into 50 mL of fresh media and grown overnight at 37 °C with shaking for use in the MIC assays. Optical density (OD) measurements were obtained using a SpectraMax iD3 plate reader (Molecular Devices, United States).
(§3) Compounds were serially diluted two-fold from stock solutions (1.0 mM) to yield twelve 100 μL test concentrations, wherein the starting concentration of dimethyl sulfoxide (DMSO) was 2.5%. Overnight S. aureus, E. faecalis, E. coli, A. baumannii, USA300-0114 (CA-MRSA), and ATCC 33591 (HA-MRSA) cultures were diluted to ca. 10^6 CFU/mL in MHB or TSB and regrown to mid-exponential phase, as determined by optical density recorded at 600 nm (OD600). All cultures were then diluted again to ca. 10^6 CFU/mL and 100 μL were inoculated into each well of a U-bottom 96-well plate (Corning, 351177) containing 100 μL of compound solution. Plates were incubated statically at 37 °C for 72 hours upon which wells were evaluated visually for bacterial growth. The MIC was determined as the lowest concentration of compound resulting in no bacterial growth visible to the naked eye, based on the highest value in three independent experiments. Aqueous DMSO controls were conducted as appropriate for each compound.
(§4) The prepared library of biscationic amphiphilic compounds was assessed for performance as antibacterial disinfectants by determining the minimum inhibitory concentration (MIC) for each against a panel of bacteria. The bacteria selected for the study were chosen to evaluate the broad spectrum antimicrobial performance of the QPCs, and therefore, included both Gram-positive and Gram-negative bacterial strains, including those with known antimicrobial resistance mechanisms. These bacteria include the Gram-positive strains of methicillin-susceptible Staphylococcus aureus [MSSA; SH1000], community-acquired methicillin-resistant Staphylococcus aureus [CA-MRSA; USA 300-0114], hospital-acquired methicillin-resistant Staphylococcus aureus [HA-MRSA; ATCC 33591] and the […], Escherichia coli [MC4100], Acinetobacter baumannii [ATCC 17498] and Pseudomonas aeruginosa [PAO1].

panel of bacteria = test: MIC across the panel of bacteria (Gram-positive and Gram-negative); format: cell-based; details: over the bacterial panel
Procedure: as §1, §2, §3, §4

E. faecalis (OG1RF) = test: MIC against E. faecalis; format: cell-based; details: Enterococcus faecalis, 72 h
Procedure: as §1, §2, §3, §4

red blood cells = test: Red Blood Cell (RBC) Lysis Assay (lysis20); format: cell-based, sheep; details: concentration inducing 20% RBC lysis; sheep blood, 1 hour, 37 °C
Procedure: RBC lysis assays were performed on mechanically defibrinated sheep blood (Hemostat Labs: DSB030). An aliquot of 1.5 mL blood was placed into a microcentrifuge tube and centrifuged at 3,800 rpm for ten minutes. The supernatant was removed, and the cells were resuspended with 1 mL of phosphate-buffered saline (PBS). The suspension was centrifuged as described above, the supernatant was removed, and cells were resuspended 4 additional times in 1 mL PBS. The final cell suspension was diluted twentyfold with PBS. Compounds were serially diluted with PBS two-fold from stock solutions (1.0 mM) to yield 100 μL of twelve test concentrations on a flat-bottom 96-well plate (Corning, 351172), wherein the starting concentration of DMSO was 2.5%. To each of the wells, 100 μL of the twentyfold suspension dilution was then inoculated. TritonX (1% by volume) served as a positive control (100% lysis marker) and sterile PBS served as a negative control (0% lysis marker). Samples were then placed in an incubator at 37 °C and shaken at 200 rpm. After 1 hour, the samples were centrifuged at 3,800 rpm for ten minutes. The absorbance of the supernatant was measured with a UV spectrometer at a 540 nm wavelength. The concentration inducing 20% RBC lysis was then calculated for each compound based upon the absorbances of the TritonX and PBS controls. Aqueous DMSO controls were conducted as appropriate for each compound.
The potential cytotoxicity of the compounds was also considered with the evaluation of hemolysis (lysis20) assays with 20% lysis of red blood cells serving as an indicator of potentially toxic compounds. Finally, the bioactivity of these compounds were benchmarked against a commercial benzalkonium chloride source (BAC; 70% benzyldimethyldodecylammonium chloride, and 30% benzyldimethyltetradecylammonium chloride) as well as some previously reported disinfectant compounds from the inventors' groups; included were bisQPC ^PhP6P-10,10 as well as ^PhP2P-10,10 and 12(2)12. A detailed description of the experimental procedures used to evaluate bioactivity and hemolysis assays are described above.

SMILES	MIC (E. coli (MC4100)) [µM]	antimicrobial activity / bioactivity (in words) (panel of bacteria)	MIC (E. faecalis (OG1RF)) [µM]	Lysis20 (red blood cells) [µM]
CCCCCCCCCCCC[P+](C)(C)CC[P+](C)(C)CCCCCCCCCCC [^MeP2P-12,12]	4	single-digit micromolar activity; also recorded: almost identical bioactivity across the bacterial panel	4	8
CCCCCCCCCCCC[N+](C)(C)CC[N+](C)(C)CCCCCCCCCCCC [12(2)12, reference compound]	2	almost identical bioactivity across the bacterial panel	8	16

Reference: patent US20260374792A1, “PHENYL-FREE BISCATIONIC QUATERNARY PHOSPHONIUM COMPOUNDS AS ANTIMICROBIAL AGENTS” (priority 2022, published 2026)
